The supplement of paper PMC8149375

Experiments:
Details in all cases: treatment: drug alone; 5 days
769-P [1] = assay: GI50, drug alone; higher = less potent
Protocol: (§1)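 Primary HTS: 8 RCC cell lines treated with 8 doses (up to 10 uM) of each library drug alone for 5 days; viability read by CellTiter-Glo and normalised to DMSO. GI50 was fitted with XLfit (4-parameter), AUC is the area under the dose-response curve, and minimum viability is the lowest fraction of DMSO viability across doses.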

786-O [2] = assay: GI50, drug alone; higher = less potent
Protocol: as §1

A498 [3] = assay: GI50, drug alone; higher = less potent
Protocol: as §1

ACHN [4] = assay: GI50, drug alone; higher = less potent
Protocol: as §1

CAKI-1 [5] = assay: GI50, drug alone; higher = less potent
Protocol: as §1

SN12C [6] = assay: GI50, drug alone; higher = less potent
Protocol: as §1

TK-10 [7] = assay: GI50, drug alone; higher = less potent
Protocol: as §1

UO-31 [8] = assay: GI50, drug alone; higher = less potent
Protocol: as §1

769-P [9] = assay: minimum viability across doses, drug alone, relative to DMSO (fraction); higher = less growth inhibition
Protocol: as §1

786-O [10] = assay: as above
Protocol: as §1

A498 [11] = assay: as above
Protocol: as §1

ACHN [12] = assay: as above
Protocol: as §1

CAKI-1 [13] = assay: as above
Protocol: as §1

SN12C [14] = assay: as above
Protocol: as §1

TK-10 [15] = assay: as above
Protocol: as §1

UO-31 [16] = assay: as above
Protocol: as §1

769-P [17] = assay: AUC of dose-response viability curve, drug alone (arbitrary (AUC of normalised viability)); higher = less growth inhibition
Protocol: as §1

786-O [18] = assay: as above
Protocol: as §1

A498 [19] = assay: as above
Protocol: as §1

ACHN [20] = assay: as above
Protocol: as §1

CAKI-1 [21] = assay: as above
Protocol: as §1

SN12C [22] = assay: as above
Protocol: as §1

TK-10 [23] = assay: as above
Protocol: as §1

UO-31 [24] = assay: as above
Protocol: as §1

| Compound | GI50, drug alone (786-O [2]) [µM] | GI50, drug alone (ACHN [4]) [µM] | GI50, drug alone (769-P [1]) [µM] | GI50, drug alone (A498 [3]) [µM] | GI50, drug alone (CAKI-1 [5]) [µM] | GI50, drug alone (SN12C [6]) [µM] | GI50, drug alone (TK-10 [7]) [µM] | GI50, drug alone (UO-31 [8]) [µM] | minimum viability across doses (769-P [9]) | minimum viability across doses (786-O [10]) | minimum viability across doses (A498 [11]) | minimum viability across doses (ACHN [12]) | minimum viability across doses (CAKI-1 [13]) | minimum viability across doses (SN12C [14]) | minimum viability across doses (TK-10 [15]) | minimum viability across doses (UO-31 [16]) | AUC of dose-response viability curve (769-P [17]) | AUC of dose-response viability curve (786-O [18]) | AUC of dose-response viability curve (A498 [19]) | AUC of dose-response viability curve (ACHN [20]) | AUC of dose-response viability curve (CAKI-1 [21]) | AUC of dose-response viability curve (SN12C [22]) | AUC of dose-response viability curve (TK-10 [23]) | AUC of dose-response viability curve (UO-31 [24]) |
| --- | --- | --- | --- | --- | --- | --- | --- | --- | --- | --- | --- | --- | --- | --- | --- | --- | --- | --- | --- | --- | --- | --- | --- | --- |
| O=C(NC[C@H](O)CO)c1ccncc1Nc1ccc(I)cc1F | 0.247 | 0.56 | 1.14 | > 10 | 0.654 | 5.97 | 0.715 | 9.22 | 0.268 | 0.292 | 0.687 | 0.273 | 0.203 | 0.409 | 0.282 | 0.367 | 2.44 | 1.84 | 4.02 | 2.11 | 2.27 | 2.62 | 2.12 | 4.06 |
| Nc1cc(C(F)(F)F)c(-c2cc(N3CCOCC3)nc(N3CCOCC3)n2)cn1 [BKM120 (NVP-BKM120)] | 0.179 | 0.887 | 1.57 | 1.93 | 0.608 | 1.67 | 0.641 | 1.45 | 0.0668 | 0.00247 | 0.134 | 0.0858 | 0.0499 | 0.0728 | 0.0981 | 0.0226 | 2.57 | 1.56 | 2.89 | 2.31 | 2.31 | 2.23 | 2.2 | 2.65 |
| CO[C@H]1C[C@H]2CC[C@@H](C)[C@@](O)(O2)C(=O)C(=O)N2CCCC[C@H]2C(=O)O[C@H]([C@H](C)C[C@@H]2CC[C@H](OP(C)(C)=O)[C@H](OC)C2)CC(=O)[C@H](C)/C=C(\C)[C@@H](O)[C@@H](OC)C(=O)[C@H](C)C[C@H](C)/C=C/C=C/C=C/1C (stereo in doubt) [Deforolimus (Ridaforolimus)] | < 0.003 | 0.559 | > 10 | > 10 | 1.07 | 0.454 | > 10 | 0.00775 | 0.607 | 0.271 | 0.636 | 0.409 | 0.456 | 0.443 | 0.542 | 0.0878 | 2.66 | 1.24 | 2.6 | 1.98 | 2.1 | 2.23 | 2.42 | 0.965 |
| S=C(NCc1ccc2c(c1)OCO2)N1CCN(c2ncnc3c2oc2ccccc23)CC1 [Amuvatinib (MP-470)] | 0.686 | 2.63 | > 10 | 3.14 | > 10 | 1.56 | 4.83 | 2.68 | 0.527 | 0.104 | 0.103 | 0.113 | 0.832 | 0.0586 | 0.28 | 0.0651 | 3.25 | 2.22 | 3.63 | 2.87 | 3.74 | 2.63 | 2.82 | 3.73 |

Further lines, with some results ahead:

| GI50, drug alone (786-O [2]) [µM] | GI50, drug alone (ACHN [4]) [µM] | Compound | GI50, drug alone (769-P [1]) [µM] | GI50, drug alone (A498 [3]) [µM] | GI50, drug alone (CAKI-1 [5]) [µM] | GI50, drug alone (SN12C [6]) [µM] | GI50, drug alone (TK-10 [7]) [µM] | GI50, drug alone (UO-31 [8]) [µM] | minimum viability across doses (769-P [9]) | minimum viability across doses (786-O [10]) | minimum viability across doses (A498 [11]) | minimum viability across doses (ACHN [12]) | minimum viability across doses (CAKI-1 [13]) | minimum viability across doses (SN12C [14]) | minimum viability across doses (TK-10 [15]) | minimum viability across doses (UO-31 [16]) | AUC of dose-response viability curve (769-P [17]) | AUC of dose-response viability curve (786-O [18]) | AUC of dose-response viability curve (A498 [19]) | AUC of dose-response viability curve (ACHN [20]) | AUC of dose-response viability curve (CAKI-1 [21]) | AUC of dose-response viability curve (SN12C [22]) | AUC of dose-response viability curve (TK-10 [23]) | AUC of dose-response viability curve (UO-31 [24]) |
| --- | --- | --- | --- | --- | --- | --- | --- | --- | --- | --- | --- | --- | --- | --- | --- | --- | --- | --- | --- | --- | --- | --- | --- | --- |
| > 10 | 0.136 | c1ccc2c(CCNc3ccc(Nc4ccncc4)cc3)c[nH]c2c1 | 0.532 | 1.36 | 0.66 | 0.881 | 1.03 | 0.115 | 0.0434 | 0.00353 | 0.022 | 0.00286 | 0.0912 | 0.0036 | 0.00837 | 0.00809 | 2.32 | 0.978 | 2.76 | 1.55 | 2.31 | 2.28 | 2.34 | 1.6 |
| 0.13 | 0.99 | CN(C)C1CCN(C(=O)c2ccc(NC(=O)Nc3ccc(-c4nc(N5CCOCC5)nc(N5CCOCC5)n4)cc3)cc2)CC1 | 5.33 | 0.0932 | 1.18 | 0.05 | 0.472 | 0.451 | 0.162 | 0.111 | 0.162 | 0.167 | 0.0321 | 0.112 | 0.133 | 0.0116 | 3.1 | 1.73 | 1.83 | 2.66 | 2.56 | 1.39 | 2.09 | 2.48 |
| 0.0587 | 0.215 | CC(=O)Nc1cccc(-n2c(=O)n(C3CC3)c(=O)c3c(Nc4ccc(I)cc4F)n(C)c(=O)c(C)c32)c1 | 0.567 | > 10 | 0.228 | 1.62 | 0.118 | 4.61 | 0.257 | 0.332 | 0.735 | 0.312 | 0.201 | 0.405 | 0.289 | 0.382 | 2.26 | 1.76 | 3.29 | 1.81 | 1.93 | 2.39 | 1.67 | 3.28 |
| 0.0101 | 0.0499 | CC[C@@H]1C(=O)N(C)c2cnc(Nc3ccc(C(=O)NC4CCN(C)CC4)cc3OC)nc2N1C1CCCC1 [BI 2536] | 0.12 | 0.458 | 0.0936 | 0.0549 | 0.317 | 0.0839 | 0.049 | 0.0067 | 0.0641 | 0.121 | 0.121 | 0.0427 | 0.0909 | 0.0104 | 1.58 | 0.585 | 1.97 | 1.37 | 1.78 | 1.37 | 1.91 | 1.61 |
| > 10 | > 10 | O=C1Nc2ccccc2/C1=C1/Nc2ccccc2C1=O [Indirubin] | > 10 | > 10 | > 10 | > 10 | > 10 | > 10 | 0.811 | 0.529 | 0.827 | 0.778 | 0.762 | 0.703 | 0.635 | 0.655 | 3.19 | 2.32 | 3.26 | 2.9 | 2.94 | 2.66 | 2.6 | 2.68 |
